Assay results from PMC10148601 (Analytica Chimica Acta, 2023).
Entries after “also recorded” stand apart in the source; their conditions may differ. Bridge positions count the residues as written; N and C are the ends. Ends that are not written are not given here.

Key:
[1] = molecular target: T1, SARS-CoV-2 NP (Severe acute respiratory syndrome coronavirus 2, UniProt P0DTC9)
[2] = molecular target: T1, SARS-CoV-2 NP; remark: listed apart in the source
[3] = tested on: SARS-CoV-2 NP versus SARS-CoV NP, MERS-CoV NP, HCoV-OC43 NP, SARS-CoV-2 S1, S-RBD, MERS-CoV S1, VEGF165, HSA, AFP, CEA, BSA; assay type: binding; details: n = 3
[4] = molecular target: T1, SARS-CoV-2 NP; remark: listed apart in the source

Sequence	Frequency among sequenced phage clones [1]	binding to SARS-CoV-2 NP (positive clone) [2]	relative affinity for NP [2]	specificity of binding [3]	binding specificity and affinity in words [4]
ACGTKPTKFC (disulfide 2-10 (inferred)) [N1]	6/26	have the ability to bind to SARS-CoV-2 NP with a significant difference compared to the control (P < 0.001)	may have higher affinity for NP than the other clones	specifically recognizes SARS-CoV-2 NP; also recorded: binds specifically to SARS-CoV-2 NP; also recorded: has the best specificity	
ACGTKPTKFCGGGGGS (disulfide 2-10 (inferred)) [peptide probe N1]					binds to SARS-CoV-2 NP with good specificity and high affinity
ACLKTYWYNC (disulfide 2-10 (inferred)) [N5]	2/26	have the ability to bind to SARS-CoV-2 NP with a significant difference compared to the control (P < 0.001)	may have higher affinity for NP than the other clones	can bind to either MERS-CoV NP, SARS-CoV NP, or HCoV-OC43 NP; also recorded: limited selectivity	
ACTPRSANYC (disulfide 2-10 (inferred)) [N4]	3/26			can bind to either MERS-CoV NP, SARS-CoV NP, or HCoV-OC43 NP; also recorded: limited selectivity	
